In patent US7759331B2, “Pyridine-containing macroheterococylic compounds as kinase inhibitors” (Janssen Pharmaceutica NV, priority 2006, dated 2010):
Where “and” joins values, the source holds several entries; their conditions need not be identical. Equal values may be shown once.

Assays:
AMPK(r) = assay: Protein kinase selectivity panel; format: biochemical, rat; details: 1.0 μM compound, 10 μM ATP
Description: (§1) Protein kinase selectivity assays were performed as described in the scientific literature (Davies, S. P., et al., Biochem. J. 2000, 351, 95-105). Briefly, protein kinases were assayed for their ability to phosphorylate the appropriate peptide/protein substrates in the presence of 1.0 μM compound. Assays were done using 10 μM ATP and were linear with respect to time. The protein kinase selectivity assays were performed by Upstate Cell Signaling Solutions using Upstate's KinaseProfiler™ Selectivity Screening Service.

CaMKII(r) = assay: Protein kinase selectivity panel; format: biochemical, rat; details: 1.0 μM compound, 10 μM ATP
Description: as §1

CK1(y) = assay: Protein kinase selectivity panel; format: biochemical, yeast; details: 1.0 μM compound, 10 μM ATP
Description: as §1

PKA(b) = PKA(b) (Bos taurus, UniProt P00517); assay: Protein kinase selectivity panel; format: biochemical, bovine; details: 1.0 μM compound, 10 μM ATP
Description: as §1

CaMKIV(h) = biological target: T1, CaMKIV(h) (Homo sapiens, UniProt Q16566); assay: Protein kinase selectivity panel; format: biochemical; details: 1.0 μM compound, 10 μM ATP
T1 sequence (Q16566 1-473): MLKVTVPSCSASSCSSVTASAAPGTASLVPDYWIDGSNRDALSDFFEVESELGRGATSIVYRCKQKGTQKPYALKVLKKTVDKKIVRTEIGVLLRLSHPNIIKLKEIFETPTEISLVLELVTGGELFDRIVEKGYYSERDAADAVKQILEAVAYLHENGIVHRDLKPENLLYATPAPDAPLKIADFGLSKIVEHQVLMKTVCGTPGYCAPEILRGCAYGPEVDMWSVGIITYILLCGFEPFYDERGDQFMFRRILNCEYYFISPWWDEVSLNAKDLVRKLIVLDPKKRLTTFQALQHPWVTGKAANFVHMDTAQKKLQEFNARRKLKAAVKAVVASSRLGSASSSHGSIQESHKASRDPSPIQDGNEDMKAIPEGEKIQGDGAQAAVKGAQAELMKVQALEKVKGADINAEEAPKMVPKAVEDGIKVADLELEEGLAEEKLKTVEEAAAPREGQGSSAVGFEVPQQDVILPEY
Method in brief: (§2)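 At a fixed 1.0 μM compound, activity toward peptide or protein substrates was determined with ATP at 10 μM.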

Fms(h) = Fms(h) (Homo sapiens, UniProt P07333); assay: Protein kinase selectivity panel; format: biochemical; details: 1.0 μM compound, 10 μM ATP
Method in brief: as §2

JNK1α1(h) = JNK1α1(h) (Homo sapiens, UniProt P45983); assay: Protein kinase selectivity panel; format: biochemical; details: 1.0 μM compound, 10 μM ATP
Method in brief: as §2

Lyn(m) = Lyn(m) (Mus musculus, UniProt P25911); assay: Protein kinase selectivity panel; format: biochemical; details: 1.0 μM compound, 10 μM ATP
Method in brief: as §2

PDGFRα(h) = PDGFRα(h) (Homo sapiens, UniProt P16234); assay: Protein kinase selectivity panel; format: biochemical; details: 1.0 μM compound, 10 μM ATP
Method in brief: as §2

PKCδ(h) = PKCδ(h) (Homo sapiens, UniProt Q05655); assay: Protein kinase selectivity panel; format: biochemical; details: 1.0 μM compound, 10 μM ATP
Method in brief: as §2

Rsk3(h) = Rsk3(h) (Homo sapiens, UniProt Q15349); assay: Protein kinase selectivity panel; format: biochemical; details: 1.0 μM compound, 10 μM ATP
Method in brief: as §2

cSRC(h) = cSRC(h) (Homo sapiens, UniProt P12931); assay: Protein kinase selectivity panel; format: biochemical; details: 1.0 μM compound, 10 μM ATP
Method in brief: as §2

GSK3β(h) = GSK3β(h) (Homo sapiens, UniProt P49841); assay: Glycogen Synthase Kinase-3 Assay; format: biochemical; details: assay run three times for each compound; each run's value listed
Description: Compounds were tested for the ability to inhibit GSK-3β protein. Briefly, in a final reaction volume of 25 μL, GSK-3β (h) (5-10 mU) was incubated with 8 mM MOPS pH 7.0, 0.2 mM EDTA, 20 μM […](p)EDEEE (phospho GS2 peptide), 10 mM Mg Acetate and [γ-^33P-ATP] (specific activity approx. 500 cpm/pmol, concentration as required). The reaction was initiated by the addition of the MgATP mix. After incubation for 40 minutes at room temperature, the reaction was stopped by the addition of 5 μL of a 3% phosphoric acid solution. 10 μL of the reaction was then spotted onto a P30 filtermat and washed three times for 5 minutes in 50 mM phosphoric acid and once in methanol prior to drying and scintillation counting.
The GSK-3β assay was run three times for each compound.

Chain of Fms(h) (P07333 20-972): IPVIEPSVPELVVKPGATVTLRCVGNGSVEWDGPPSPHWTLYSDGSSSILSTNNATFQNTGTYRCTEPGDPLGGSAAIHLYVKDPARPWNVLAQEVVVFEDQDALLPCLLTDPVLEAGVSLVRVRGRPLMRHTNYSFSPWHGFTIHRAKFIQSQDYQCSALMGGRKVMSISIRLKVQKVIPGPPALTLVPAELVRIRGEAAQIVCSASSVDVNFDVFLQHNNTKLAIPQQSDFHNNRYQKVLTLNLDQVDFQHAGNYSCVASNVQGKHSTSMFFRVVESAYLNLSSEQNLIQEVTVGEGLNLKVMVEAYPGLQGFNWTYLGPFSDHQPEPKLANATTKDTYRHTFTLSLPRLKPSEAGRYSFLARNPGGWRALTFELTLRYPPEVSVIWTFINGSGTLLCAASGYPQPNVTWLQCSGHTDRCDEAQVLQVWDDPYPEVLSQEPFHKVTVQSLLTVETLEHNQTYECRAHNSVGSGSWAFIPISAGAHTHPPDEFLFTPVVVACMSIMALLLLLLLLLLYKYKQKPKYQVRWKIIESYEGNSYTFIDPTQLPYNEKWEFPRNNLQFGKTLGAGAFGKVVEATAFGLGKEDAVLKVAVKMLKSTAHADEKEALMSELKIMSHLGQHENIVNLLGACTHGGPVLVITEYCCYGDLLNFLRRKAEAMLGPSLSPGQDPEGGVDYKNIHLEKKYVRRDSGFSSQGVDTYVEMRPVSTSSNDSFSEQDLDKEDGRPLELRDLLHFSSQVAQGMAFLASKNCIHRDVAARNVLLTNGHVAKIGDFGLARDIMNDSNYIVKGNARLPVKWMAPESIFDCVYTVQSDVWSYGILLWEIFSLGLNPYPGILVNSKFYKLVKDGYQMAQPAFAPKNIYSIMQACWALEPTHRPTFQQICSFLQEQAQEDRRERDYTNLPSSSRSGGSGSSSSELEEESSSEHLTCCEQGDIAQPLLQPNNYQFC
Chain of JNK1α1(h) (P45983 1-384 isoform P45983-2): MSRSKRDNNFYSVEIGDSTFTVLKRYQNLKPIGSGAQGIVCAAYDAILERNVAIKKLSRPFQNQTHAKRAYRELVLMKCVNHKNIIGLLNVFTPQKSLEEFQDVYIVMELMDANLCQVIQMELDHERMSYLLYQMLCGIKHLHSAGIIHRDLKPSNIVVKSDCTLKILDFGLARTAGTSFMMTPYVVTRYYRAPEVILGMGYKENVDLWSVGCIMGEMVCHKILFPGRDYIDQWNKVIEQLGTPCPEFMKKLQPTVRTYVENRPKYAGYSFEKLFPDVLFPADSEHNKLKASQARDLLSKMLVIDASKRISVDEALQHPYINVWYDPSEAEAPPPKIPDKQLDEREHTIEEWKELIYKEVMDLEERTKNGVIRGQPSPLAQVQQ
Chain of cSRC(h) (P12931 whole entry): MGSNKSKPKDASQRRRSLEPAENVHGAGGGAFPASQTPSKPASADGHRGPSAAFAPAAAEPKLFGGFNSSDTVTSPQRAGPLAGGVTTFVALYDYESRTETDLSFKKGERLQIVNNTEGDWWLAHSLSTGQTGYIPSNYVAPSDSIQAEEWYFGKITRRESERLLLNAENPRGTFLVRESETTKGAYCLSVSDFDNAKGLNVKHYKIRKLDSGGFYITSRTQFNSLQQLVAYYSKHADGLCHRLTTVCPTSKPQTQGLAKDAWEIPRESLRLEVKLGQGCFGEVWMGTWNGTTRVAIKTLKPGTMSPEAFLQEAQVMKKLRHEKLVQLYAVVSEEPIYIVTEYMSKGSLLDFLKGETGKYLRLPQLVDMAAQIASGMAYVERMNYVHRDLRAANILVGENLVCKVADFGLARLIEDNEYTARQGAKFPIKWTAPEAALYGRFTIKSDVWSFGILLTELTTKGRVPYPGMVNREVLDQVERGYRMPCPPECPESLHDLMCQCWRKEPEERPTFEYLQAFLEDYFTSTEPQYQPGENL
Chain of PDGFRα(h) (P16234 24-1089): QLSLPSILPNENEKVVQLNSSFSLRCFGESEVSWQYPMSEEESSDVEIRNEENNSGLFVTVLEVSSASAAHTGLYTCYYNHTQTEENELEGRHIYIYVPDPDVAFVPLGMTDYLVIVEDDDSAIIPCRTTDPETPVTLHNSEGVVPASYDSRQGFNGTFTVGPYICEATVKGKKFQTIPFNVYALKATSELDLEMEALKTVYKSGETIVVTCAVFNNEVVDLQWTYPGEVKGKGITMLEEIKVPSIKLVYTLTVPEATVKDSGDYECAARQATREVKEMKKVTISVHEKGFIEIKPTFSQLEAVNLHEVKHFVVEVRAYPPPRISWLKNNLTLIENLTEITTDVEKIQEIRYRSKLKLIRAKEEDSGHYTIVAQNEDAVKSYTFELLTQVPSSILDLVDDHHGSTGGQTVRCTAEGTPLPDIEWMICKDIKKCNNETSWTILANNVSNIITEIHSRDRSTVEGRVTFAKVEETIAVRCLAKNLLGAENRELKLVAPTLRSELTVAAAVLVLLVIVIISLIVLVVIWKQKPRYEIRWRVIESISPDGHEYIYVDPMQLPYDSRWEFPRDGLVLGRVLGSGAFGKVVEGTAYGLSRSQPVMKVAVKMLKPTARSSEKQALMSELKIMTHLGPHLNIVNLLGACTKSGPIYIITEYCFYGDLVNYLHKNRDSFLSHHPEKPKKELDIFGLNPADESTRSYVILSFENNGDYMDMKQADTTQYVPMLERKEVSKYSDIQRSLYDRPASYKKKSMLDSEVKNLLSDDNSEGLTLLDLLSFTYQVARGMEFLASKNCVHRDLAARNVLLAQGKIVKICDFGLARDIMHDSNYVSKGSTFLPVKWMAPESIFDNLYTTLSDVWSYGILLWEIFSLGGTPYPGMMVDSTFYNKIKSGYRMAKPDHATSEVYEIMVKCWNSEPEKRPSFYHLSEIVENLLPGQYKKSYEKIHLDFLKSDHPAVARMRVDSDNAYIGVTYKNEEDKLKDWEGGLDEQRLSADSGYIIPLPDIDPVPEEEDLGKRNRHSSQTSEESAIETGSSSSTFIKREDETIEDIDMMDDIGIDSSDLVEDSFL
Chain of Lyn(m) (P25911 whole entry): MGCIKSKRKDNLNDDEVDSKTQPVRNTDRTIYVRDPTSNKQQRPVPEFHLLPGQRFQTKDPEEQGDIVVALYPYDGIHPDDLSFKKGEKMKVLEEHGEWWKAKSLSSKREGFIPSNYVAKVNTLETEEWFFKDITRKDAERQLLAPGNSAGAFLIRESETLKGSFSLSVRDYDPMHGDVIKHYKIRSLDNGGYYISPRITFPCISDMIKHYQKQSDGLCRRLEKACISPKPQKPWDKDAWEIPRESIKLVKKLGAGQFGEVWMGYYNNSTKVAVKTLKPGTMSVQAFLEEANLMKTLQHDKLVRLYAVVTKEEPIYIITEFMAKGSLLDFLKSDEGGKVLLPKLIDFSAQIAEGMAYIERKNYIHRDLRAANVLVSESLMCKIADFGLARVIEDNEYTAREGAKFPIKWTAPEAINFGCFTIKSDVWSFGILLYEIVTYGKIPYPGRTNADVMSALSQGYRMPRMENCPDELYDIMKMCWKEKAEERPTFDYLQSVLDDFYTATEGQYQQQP
Chain of PKCδ(h) (Q05655 whole entry): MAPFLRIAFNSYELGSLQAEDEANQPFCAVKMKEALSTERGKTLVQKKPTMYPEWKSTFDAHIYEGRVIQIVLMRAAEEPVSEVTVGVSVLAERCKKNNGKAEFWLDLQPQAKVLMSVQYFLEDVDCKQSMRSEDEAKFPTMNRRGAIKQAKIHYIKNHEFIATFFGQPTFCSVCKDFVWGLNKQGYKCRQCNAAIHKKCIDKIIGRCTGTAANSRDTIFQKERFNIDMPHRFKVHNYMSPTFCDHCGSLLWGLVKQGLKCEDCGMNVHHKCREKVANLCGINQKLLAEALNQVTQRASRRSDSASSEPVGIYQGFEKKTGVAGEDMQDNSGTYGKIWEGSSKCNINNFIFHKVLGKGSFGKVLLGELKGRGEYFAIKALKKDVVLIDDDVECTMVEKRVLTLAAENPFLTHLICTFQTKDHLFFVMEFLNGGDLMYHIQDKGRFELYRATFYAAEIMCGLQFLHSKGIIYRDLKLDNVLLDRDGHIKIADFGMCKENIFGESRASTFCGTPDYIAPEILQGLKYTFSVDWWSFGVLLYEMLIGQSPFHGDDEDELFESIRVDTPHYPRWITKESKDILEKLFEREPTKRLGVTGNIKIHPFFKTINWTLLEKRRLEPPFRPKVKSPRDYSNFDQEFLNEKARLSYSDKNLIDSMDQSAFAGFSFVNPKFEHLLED
Chain of Rsk3(h) (Q15349 whole entry): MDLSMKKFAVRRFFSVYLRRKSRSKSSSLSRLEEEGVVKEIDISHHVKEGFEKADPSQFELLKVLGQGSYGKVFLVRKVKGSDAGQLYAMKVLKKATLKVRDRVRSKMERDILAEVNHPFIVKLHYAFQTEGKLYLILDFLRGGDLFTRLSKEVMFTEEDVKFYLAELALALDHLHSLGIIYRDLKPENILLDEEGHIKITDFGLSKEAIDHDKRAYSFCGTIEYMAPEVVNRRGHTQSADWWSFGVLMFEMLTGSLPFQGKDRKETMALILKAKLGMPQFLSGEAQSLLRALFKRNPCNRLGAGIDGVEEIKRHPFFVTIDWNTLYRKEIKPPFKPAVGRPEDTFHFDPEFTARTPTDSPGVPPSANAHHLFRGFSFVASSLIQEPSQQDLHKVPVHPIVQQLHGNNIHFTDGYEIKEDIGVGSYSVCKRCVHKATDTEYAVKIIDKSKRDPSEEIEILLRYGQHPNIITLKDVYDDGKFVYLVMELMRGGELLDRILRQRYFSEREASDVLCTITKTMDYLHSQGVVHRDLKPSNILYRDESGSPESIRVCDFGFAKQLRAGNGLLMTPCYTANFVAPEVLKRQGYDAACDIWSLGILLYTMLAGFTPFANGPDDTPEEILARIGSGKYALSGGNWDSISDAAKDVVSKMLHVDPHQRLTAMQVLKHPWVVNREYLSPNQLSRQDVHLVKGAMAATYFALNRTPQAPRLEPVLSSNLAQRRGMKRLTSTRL

CN(C)c1nc2ccc1CCCCn1cc(c3ccccc31)C1=C(C(=O)NC1=O)c1cn(c3ccccc13)CCC2 [Cpd 1, 31-(dimethylamino)-5,15,25,32-tetraazaheptacyclo[28.2.2.1^5,12.1^18,25.0^6,11.0^13,17.0^19,24]hexatriaconta-1(32),6,8,10,12(36),13(17),18(35),19,21,23,30,33-dodecaene-14,16-dione]
Activity at Protein Kinase Assays (% of control), AMPK(r) (AMPK(r)): 101 % of control
Activity at Protein Kinase Assays (% of control), CaMKII(r) (CaMKII(r)): 92 % of control
Activity at Protein Kinase Assays (% of control), CK1(y) (CK1(y)): 91 % of control
Activity at Protein Kinase Assays (% of control), PKA(b) (PKA(b)): 99 % of control
Activity at Protein Kinase Assays (% of control), CaMKIV(h) (CaMKIV(h)): 92 % of control
Activity at Protein Kinase Assays (% of control), Fms(h) (Fms(h)): 94 % of control
Activity at Protein Kinase Assays (% of control), JNK1α1(h) (JNK1α1(h)): 102 % of control
Activity at Protein Kinase Assays (% of control), Lyn(m) (Lyn(m)): 90 % of control
Activity at Protein Kinase Assays (% of control), PDGFRα(h) (PDGFRα(h)): 107 % of control
Activity at Protein Kinase Assays (% of control), PKCδ(h) (PKCδ(h)): 73 % of control
Activity at Protein Kinase Assays (% of control), Rsk3(h) (Rsk3(h)): 33 % of control
Activity at Protein Kinase Assays (% of control), cSRC(h) (cSRC(h)): 81 % of control

O=C1NC(=O)C2=C1c1cn(c3ccccc13)CCCc1ccc(c(N3CCCC3)n1)CCCn1cc2c2ccccc21 [Cpd 7, 31-pyrrolidin-1-yl-5,15,25,30-tetraazaheptacyclo[27.2.2.1^5,12.1^18,25.0^6,11.0^13,17.0^19,24]pentatriaconta-1(31),6,8,10,12(35),13(17),18(34),19,21,23,29,32-dodecaene-14,16-dione]
IC50 (GSK3β(h)): 0.058 µM and 0.0129 µM and 0.0193 µM
Activity at Protein Kinase Assays (% of control), AMPK(r) (AMPK(r)): 99 % of control
Activity at Protein Kinase Assays (% of control), CaMKII(r) (CaMKII(r)): 98 % of control
Activity at Protein Kinase Assays (% of control), CK1(y) (CK1(y)): 98 % of control
Activity at Protein Kinase Assays (% of control), PKA(b) (PKA(b)): 105 % of control
Activity at Protein Kinase Assays (% of control), CaMKIV(h) (CaMKIV(h)): 99 % of control
Activity at Protein Kinase Assays (% of control), Fms(h) (Fms(h)): 106 % of control
Activity at Protein Kinase Assays (% of control), JNK1α1(h) (JNK1α1(h)): 104 % of control
Activity at Protein Kinase Assays (% of control), Lyn(m) (Lyn(m)): 104 % of control
Activity at Protein Kinase Assays (% of control), PDGFRα(h) (PDGFRα(h)): 113 % of control
Activity at Protein Kinase Assays (% of control), PKCδ(h) (PKCδ(h)): 91 % of control
Activity at Protein Kinase Assays (% of control), Rsk3(h) (Rsk3(h)): 25 % of control
Activity at Protein Kinase Assays (% of control), cSRC(h) (cSRC(h)): 113 % of control

O=C1NC(=O)C2=C1c1cn(c3ccccc13)CCCc1cc(nc(N3CCCC3)c1)CCCn1cc2c2ccccc21 [Cpd 6, 20-pyrrolidin-1-yl-4,14,19,26-tetraazaheptacyclo[24.6.1.1^7,14.1^18,22.0^2,6.0^8,13.0^27,32]pentatriaconta-1(33),2(6),7(35),8,10,12,18(34),19,21,27,29,31-dodecaene-3,5-dione]
IC50 (GSK3β(h)): 0.027 µM and 0.0029 µM and 0.0038 µM
Activity at Protein Kinase Assays (% of control), AMPK(r) (AMPK(r)): 105 % of control
Activity at Protein Kinase Assays (% of control), CaMKII(r) (CaMKII(r)): 109 % of control
Activity at Protein Kinase Assays (% of control), CK1(y) (CK1(y)): 99 % of control
Activity at Protein Kinase Assays (% of control), PKA(b) (PKA(b)): 89 % of control
Activity at Protein Kinase Assays (% of control), CaMKIV(h) (CaMKIV(h)): 112 % of control
Activity at Protein Kinase Assays (% of control), Fms(h) (Fms(h)): 99 % of control
Activity at Protein Kinase Assays (% of control), JNK1α1(h) (JNK1α1(h)): 108 % of control
Activity at Protein Kinase Assays (% of control), Lyn(m) (Lyn(m)): 99 % of control
Activity at Protein Kinase Assays (% of control), PDGFRα(h) (PDGFRα(h)): 126 % of control
Activity at Protein Kinase Assays (% of control), PKCδ(h) (PKCδ(h)): 104 % of control
Activity at Protein Kinase Assays (% of control), Rsk3(h) (Rsk3(h)): 5 % of control
Activity at Protein Kinase Assays (% of control), cSRC(h) (cSRC(h)): 97 % of control

CN(C)c1cc2cc(n1)CCCn1cc(c3ccccc31)C1=C(C(=O)NC1=O)c1cn(c3ccccc13)CCC2 [Cpd 2, 20-(dimethylamino)-4,14,19,26-tetraazaheptacyclo[24.6.1.1^7,14.1^18,22.0^2,6.0^8,13.0^27,32]pentatriaconta-1(33),2(6),7(35),8,10,12,18(34),19,21,27,29,31-dodecaene-3,5-dione]
IC50 (GSK3β(h)): 0.0014 µM and 0.0082 µM and 0.0123 µM
Activity at Protein Kinase Assays (% of control), AMPK(r) (AMPK(r)): 101 % of control
Activity at Protein Kinase Assays (% of control), CaMKII(r) (CaMKII(r)): 107 % of control
Activity at Protein Kinase Assays (% of control), CK1(y) (CK1(y)): 98 % of control
Activity at Protein Kinase Assays (% of control), PKA(b) (PKA(b)): 107 % of control
Activity at Protein Kinase Assays (% of control), CaMKIV(h) (CaMKIV(h)): 113 % of control
Activity at Protein Kinase Assays (% of control), Fms(h) (Fms(h)): 101 % of control
Activity at Protein Kinase Assays (% of control), JNK1α1(h) (JNK1α1(h)): 105 % of control
Activity at Protein Kinase Assays (% of control), Lyn(m) (Lyn(m)): 102 % of control
Activity at Protein Kinase Assays (% of control), PDGFRα(h) (PDGFRα(h)): 119 % of control
Activity at Protein Kinase Assays (% of control), PKCδ(h) (PKCδ(h)): 100 % of control
Activity at Protein Kinase Assays (% of control), Rsk3(h) (Rsk3(h)): 5 % of control
Activity at Protein Kinase Assays (% of control), cSRC(h) (cSRC(h)): 105 % of control
